Test results reported in the supplement of paper PMC10627819.

Key:
[1] = system: S. aureus DSM 20231; assay: Bliss interaction score (quartile over a dose matrix) (fitness difference); higher = more antagonism (negative = synergy)
How it was run: (§1)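 Fitness was derived from optical density at entry into stationary phase, divided by the robust mean of the no-drug wells on the same plate. That reading was taken as OD595, and the ratio was capped at 1. Single-drug fitness was inferred from the combination data. The Bliss score, observed fitness minus the expected product of single-drug fitness, was summarised as quartiles over technical, biological and donor/recipient replicates.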

[2] = system: B. subtilis 168; assay: as above
How it was run: as §1

[3] = system: S. aureus Newman; assay: as above
How it was run: as §1

[4] = system: S. pneumoniae D39V; assay: as above
How it was run: as §1

[5] = system: S. aureus DSM 20231; assay: fitness (endpoint OD595 vs no drug) (fraction); higher = more growth
How it was run: (§2)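 Bacterial growth was followed in 384-well plates seeded at OD595 0.01, with 30 µl per well, or 55 µl for S. pneumoniae, in TSB, LB Lennox or CY at 37 °C. OD595 was read every 30 min for 14 h, and each reading had the first reading subtracted as background. Fitness is the background-corrected optical density at entry into stationary phase divided by the robust mean of the no-drug control wells. This ratio is capped at 1.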

[6] = system: B. subtilis 168; assay: as above
How it was run: as §2

[7] = system: S. aureus Newman; assay: as above
How it was run: as §2

[8] = system: S. pneumoniae D39V; assay: as above
How it was run: as §2
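For Bliss interaction score (quartile over a dose matrix) in this document: first quartile when negative (synergy) and third quartile when positive (antagonism).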

COc1ccc(C[C@H](N)C(=O)N[C@H]2[C@@H](O)[C@H](n3cnc4c(N(C)C)ncnc43)O[C@@H]2CO)cc1 [Puromycin] + CC1=C\[C@@H](O)CC(=O)Cc2nc(co2)C(=O)N2CCC=C2C(=O)O[C@H](C(C)C)[C@H](C)/C=C/C(=O)NC\C=C\1 [Virginiamycin M1]
Details	Bliss interaction score
[1]	0.0808
[2]	0.0535
[3]	0.0481
[4]	0.0811

Details	fitness
[5], first compound 0.39 µg/mL, partner 0.0625 µg/mL	0.981
[5], first compound 0.39 µg/mL, partner 0.125 µg/mL	≥ 1
[5], first compound 0.39 µg/mL, partner 0.25 µg/mL	0.926
[5], first compound 0.78 µg/mL, partner 0.125 µg/mL	0.807
[5], first compound 0.78 µg/mL, partner 0.25 µg/mL	0.978
[5], first compound 1.56 µg/mL, partner 0.0625 µg/mL	0.998
[5], first compound 1.56 µg/mL, partner 0.125 µg/mL	≥ 1
[5], first compound 1.56 µg/mL, partner 0.25 µg/mL	0.98
[6], first compound 0.39 µg/mL, partner 0.0625 µg/mL	0.975
[6], first compound 0.39 µg/mL, partner 0.125 µg/mL	0.947
[6], first compound 0.39 µg/mL, partner 0.25 µg/mL	≥ 1
[6], first compound 0.78 µg/mL, partner 0.0625 µg/mL	0.94
[6], first compound 0.78 µg/mL, partner 0.125 µg/mL	0.908
[6], first compound 0.78 µg/mL, partner 0.25 µg/mL	0.963
[6], first compound 1.56 µg/mL, partner 0.0625 µg/mL	0.948
[6], first compound 1.56 µg/mL, partner 0.125 µg/mL	0.884
[6], first compound 1.56 µg/mL, partner 0.25 µg/mL	0.87
[7], first compound 0.39 µg/mL, partner 0.0625 µg/mL	0.988
[7], first compound 0.39 µg/mL, partner 0.125 µg/mL	≥ 1
[7], first compound 0.39 µg/mL, partner 0.25 µg/mL	0.999
[7], first compound 0.78 µg/mL, partner 0.0625 µg/mL	0.986
[7], first compound 0.78 µg/mL, partner 0.125 µg/mL	≥ 1
[7], first compound 0.78 µg/mL, partner 0.25 µg/mL	0.984
[7], first compound 1.56 µg/mL, partner 0.0625 µg/mL	0.998
[7], first compound 1.56 µg/mL, partner 0.125 µg/mL	0.977
[7], first compound 1.56 µg/mL, partner 0.25 µg/mL	0.986
[8], first compound 1 µg/mL, partner 0.5 µg/mL	0.976
[8], first compound 1 µg/mL, partner 1 µg/mL	0.952
[8], first compound 1 µg/mL, partner 2 µg/mL	0.908
[8], first compound 2 µg/mL, partner 0.5 µg/mL	0.986
[8], first compound 2 µg/mL, partner 1 µg/mL	0.969
[8], first compound 2 µg/mL, partner 2 µg/mL	0.886
[8], first compound 4 µg/mL, partner 0.5 µg/mL	0.847
[8], first compound 4 µg/mL, partner 1 µg/mL	0.783
[8], first compound 4 µg/mL, partner 2 µg/mL	0.804

one replicate
Details	fitness
[5], first compound 0.39 µg/mL, partner 0.5 µg/mL	0.858
[5], first compound 0.39 µg/mL, partner 1 µg/mL	0.798
[5], first compound 0.78 µg/mL, partner 0.5 µg/mL	0.924
[5], first compound 0.78 µg/mL, partner 1 µg/mL	0.917
[5], first compound 1.56 µg/mL, partner 0.5 µg/mL	0.939
[5], first compound 1.56 µg/mL, partner 1 µg/mL	0.941
[5], first compound 3.12 µg/mL, partner 0.0625 µg/mL	0.99
[5], first compound 3.12 µg/mL, partner 0.125 µg/mL	0.996
[5], first compound 3.12 µg/mL, partner 0.25 µg/mL	0.931
[5], first compound 6.24 µg/mL, partner 0.0625 µg/mL	0.67
[5], first compound 6.24 µg/mL, partner 0.125 µg/mL	0.706
[5], first compound 6.24 µg/mL, partner 0.25 µg/mL	0.851
[7], first compound 0.39 µg/mL, partner 0.5 µg/mL	0.877
[7], first compound 0.39 µg/mL, partner 1 µg/mL	≥ 1
[7], first compound 0.39 µg/mL, partner 2 µg/mL	0.907
[7], first compound 0.78 µg/mL, partner 0.5 µg/mL	0.948
[7], first compound 0.78 µg/mL, partner 1 µg/mL	0.988
[7], first compound 0.78 µg/mL, partner 2 µg/mL	0.87
[7], first compound 1.56 µg/mL, partner 0.5 µg/mL	0.942
[7], first compound 1.56 µg/mL, partner 1 µg/mL	≥ 1
[7], first compound 1.56 µg/mL, partner 2 µg/mL	0.919
[8], first compound 1 µg/mL, partner 0.15 µg/mL	≥ 1
[8], first compound 1 µg/mL, partner 0.3 µg/mL	≥ 1
[8], first compound 2 µg/mL, partner 0.15 µg/mL	≥ 1
[8], first compound 2 µg/mL, partner 0.3 µg/mL	0.983
[8], first compound 4 µg/mL, partner 0.15 µg/mL	0.981
[8], first compound 4 µg/mL, partner 0.3 µg/mL	0.948

CO/N=C(\C(=O)N[C@@H]1C(=O)N2C(C(=O)O)=C(COC(C)=O)CS[C@H]12)c1csc(N)n1 [Cefotaxime] + CN[C@@H]1[C@H](O)[C@H](NC)[C@H]2O[C@@]3(O)C(=O)C[C@@H](C)O[C@H]3O[C@@H]2[C@H]1O [Spectinomycin]
Details	Bliss interaction score
[1]	0.0658
[2]	-0.0623
[3]	-0.0972
[4]	0.108

one replicate
Details	fitness
[5], first compound 0.039 µg/mL, partner 4 µg/mL	0.72
[5], first compound 0.039 µg/mL, partner 8 µg/mL	0.747
[5], first compound 0.039 µg/mL, partner 16 µg/mL	0.707
[5], first compound 0.078 µg/mL, partner 32 µg/mL	0.597
[5], first compound 0.078 µg/mL, partner 64 µg/mL	0.0453
[5], first compound 0.156 µg/mL, partner 32 µg/mL	0.632
[5], first compound 0.156 µg/mL, partner 64 µg/mL	0.0727
[5], first compound 0.312 µg/mL, partner 32 µg/mL	0.583
[5], first compound 0.312 µg/mL, partner 64 µg/mL	0.0287
[6], first compound 0.00775 µg/mL, partner 2 µg/mL	0.794
[6], first compound 0.00775 µg/mL, partner 4 µg/mL	0.796
[6], first compound 0.00775 µg/mL, partner 8 µg/mL	0.816
[6], first compound 0.0155 µg/mL, partner 2 µg/mL	0.671
[6], first compound 0.0155 µg/mL, partner 4 µg/mL	0.748
[6], first compound 0.0155 µg/mL, partner 8 µg/mL	0.571
[6], first compound 0.031 µg/mL, partner 2 µg/mL	0.521
[6], first compound 0.031 µg/mL, partner 4 µg/mL	0.519
[6], first compound 0.031 µg/mL, partner 8 µg/mL	0.258
[7], first compound 0.078 µg/mL, partner 32 µg/mL	0.328
[7], first compound 0.078 µg/mL, partner 64 µg/mL	0.0751
[7], first compound 0.156 µg/mL, partner 32 µg/mL	0.0776
[7], first compound 0.156 µg/mL, partner 64 µg/mL	0.0848
[7], first compound 0.312 µg/mL, partner 32 µg/mL	0.0307
[7], first compound 0.312 µg/mL, partner 64 µg/mL	0.0805
[7], first compound 0.625 µg/mL, partner 4 µg/mL	0.0066
[7], first compound 0.625 µg/mL, partner 8 µg/mL	0.0296
[7], first compound 0.625 µg/mL, partner 16 µg/mL	0.021
[7], first compound 1.25 µg/mL, partner 4 µg/mL	0.0276
[7], first compound 1.25 µg/mL, partner 8 µg/mL	0.0141
[7], first compound 1.25 µg/mL, partner 16 µg/mL	0.0089
[7], first compound 2.5 µg/mL, partner 4 µg/mL	0.0608
[7], first compound 2.5 µg/mL, partner 8 µg/mL	0.0355
[7], first compound 2.5 µg/mL, partner 16 µg/mL	0.0355

fitness
Details	partner 2 µg/mL	partner 4 µg/mL	partner 8 µg/mL	partner 16 µg/mL
[5], first compound 0.078 µg/mL	–	0.791	0.747	0.714
[5], first compound 0.156 µg/mL	–	0.704	0.754	0.711
[5], first compound 0.312 µg/mL	–	0.68	0.694	0.596
[6], first compound 0.5 µg/mL	0.234	0.139	0.0989	–
[6], first compound 1 µg/mL	0.11	0.0503	0.0323	–
[6], first compound 2 µg/mL	0.0973	0.0906	0.091	–
[7], first compound 0.078 µg/mL	–	0.697	0.716	0.686
[7], first compound 0.156 µg/mL	–	0.582	0.59	0.503
[7], first compound 0.312 µg/mL	–	0.272	0.201	0.0958
[8], first compound 0.0018 µg/mL	–	0.985	0.944	0.9
[8], first compound 0.0035 µg/mL	–	0.97	0.944	0.847
[8], first compound 0.007 µg/mL	–	0.834	0.852	0.8
